The source of these data is patent publication US20250144031A1, “COMPOSITION FOR TREATING SPINAL MUSCULAR ATROPHY” (Hoffmann-La Roche Inc., priority 2023, published 2025).

Data set [1] can be described thus: Risdiplam solubility in tartaric acid solution with sodium croscarmellose or crospovidone (UPLC). It counts as physicochemical. The note with it: 0.6 mg/ml tartaric acid in tap water, pH 4.1, stirred 30 minutes, room temperature. Here is the method: 60 mg of Tartaric Acid were dissolved in 100 ml tap water (0.6 mg/ml) at room temperature and protected from light. A representative amount of Sodium Croscarmellose or Crospovidone was added and dispersed. After that, 100 mg of risdiplam were added, the suspension stirred for 30 minutes und the concentration analyzed by UPLC (see Table 11).

A short description of data set [2]: Impact of sucralose on risdiplam stability. It is filed as physicochemical. The note with it: 25 mg risdiplam and 475 mg Sucralose, 15 days at 70° C./75% Relative Humidity. Here is the method:
FIG. 3: Discoloration and decomposition of risdiplam in the presence of Sucralose, a) Risdiplam+Sucralose at time 0, b) risdiplam+Sucralose (70° C./75% Relative Humidity) after 15 days, c) sucralose without Risdiplam (70° C./75% Relative Humidity) after 15 days.
The impact of Sucralose on Risdiplam stability was evaluated. Vial (a) contained […] and is shown at time 0; vial (b) is 25 mg risdiplam and 475 mg Sucralose after 15 days at 70° C./75% Relative Humidity; and vial (c) is Sucralose without Risdiplam after 15 days at 70° C./75% Relative Humidity.

The conditions of data set [3]: air of a workplace; classified by regulatory authorities at EU and national levels; cited from earlier work.

Turning to `Cc1cn2nc(-c3cc(=O)n4cc(N5CCNC6(CC6)C5)ccc4n3)cc(C)c2n1` [Risdiplam, 7-(4,7-diazaspiro[2.5]octan-7-yl)-2-(2,8-dimethylimidazo[1,2-b]pyridazin-6-yl)pyrido[1,2-a]pyrimidin-4-one], the “Concentration (Nominal 1 mg/ml)” value in data set [1] (with Crospovidone (75 mg)) was found to be 0.97 mg/mL; in data set [1] (with Sodium Croscarmellose (75 mg)), 0.28 mg/mL. Also, in data set [2], the “Stability of risdiplam in presence of Sucralose” value is “cause discoloration and promote the decomposition of risdiplam”. For the same compound, the “IOEL (occupational exposure limit)” value in data set [3] is given as 1.0-10 microgram/m3.
